{
  "source": "patent US20030229922A1",
  "about": "“Materials and methods for the modification of plant cell wall polysaccharides” (GENESIS RESEARCH AND DEVELOPMENT CORPORATION LTD., priority 1998, published 2003)",
  "key": {"[1]": {"biological_target": "T1, Eucalyptus grandis UGP (UDP-glucose pyrophosphorylase), SEQ ID NO: 79 (DNA; protein SEQ ID NO: 103) (Eucalyptus grandis, UniProt B3VDY8)", "T1 construct": "wild type", "T1 sequence (B3VDY8 entry or part of it)": "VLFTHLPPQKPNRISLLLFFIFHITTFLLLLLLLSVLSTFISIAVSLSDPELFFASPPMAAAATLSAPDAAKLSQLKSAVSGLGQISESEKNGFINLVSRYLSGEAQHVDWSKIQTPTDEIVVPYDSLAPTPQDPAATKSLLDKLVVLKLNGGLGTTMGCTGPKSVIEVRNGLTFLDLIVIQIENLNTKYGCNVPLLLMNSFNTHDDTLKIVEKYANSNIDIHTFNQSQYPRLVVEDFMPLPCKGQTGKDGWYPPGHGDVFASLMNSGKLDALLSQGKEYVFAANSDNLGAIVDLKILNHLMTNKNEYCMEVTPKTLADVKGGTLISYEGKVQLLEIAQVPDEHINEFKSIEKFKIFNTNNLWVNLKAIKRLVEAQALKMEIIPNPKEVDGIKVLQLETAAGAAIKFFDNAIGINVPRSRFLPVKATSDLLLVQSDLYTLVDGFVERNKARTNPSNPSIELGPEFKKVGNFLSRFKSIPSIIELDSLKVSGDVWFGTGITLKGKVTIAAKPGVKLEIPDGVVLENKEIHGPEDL", "assay": "UGP enzyme assay (purified recombinant protein)", "type": "biochemical", "settings": "E. grandis UGP", "description": "Sense constructs containing sequences including the coding regions for UGP (SEQ ID NO: 79) and SUS (SEQ ID NO: 105) from Eucalyptus grandis, and UGP (SEQ ID NO: 80) from Pinus radiata were inserted into the expression vector pET16b (Clontech Laboratories Inc, Palo Alto, Calif.). The resulting constructs were transformed into E. coli XL1-Blue (Stratagene) and induced to produce recombinant protein by the addition of IPTG. Purified proteins were obtained using Ni^2+ column chromatography (Janknecht et al., Proc. Natl. Acad. Sci. USA, 88:8972-8976, 1991).\nEnzyme assays for UGP were performed using published methods (Peng and Chang, FEBS Lett. 329:153-158, 1993)."}, "[2]": {"tested_on": "S. tuberosum UGP (Katsube et al.)", "settings": "cited from earlier work"}, "[3]": {"tested_on": "S. tuberosum UGP (Nakano et al.)", "settings": "cited from earlier work"}, "[4]": {"tested_on": "V. radiata SUS (sucrose synthase) (Delmer et al.)", "settings": "SEM n.a.; cited from earlier work"}},
  "note": "Where two headings read alike, the source gives them in different places.",
  "data": [
    {"smiles": "Nc1ncnc2c1ncn2[C@@H]1O[C@H](COP(=O)(O)OP(=O)(O)OP(=O)(O)O)[C@@H](O)[C@H]1O", "note": "[ATP]", "values": [
      {"measurement": "KM^ATP", "setting": "[1]", "value": "no activity"},
      {"measurement": "KM^ATP", "setting": "[2]", "value": "no activity"},
      {"measurement": "KM^ATP", "setting": "[3]", "value": "no activity"}
    ]},
    {"smiles": "O=P(O)(O)O[C@H]1O[C@H](CO)[C@@H](O)[C@H](O)[C@H]1O", "note": "[G1P]", "values": [
      {"measurement": "Km", "setting": "[2]; read-out: KM^G1P, SEM n.a.", "value": 130, "unit": "µM"},
      {"measurement": "Km", "setting": "[3]; read-out: KM^G1P, SEM n.a.", "value": 180, "unit": "µM"}
    ]},
    {"smiles": "OC[C@H]1O[C@@](CO)(O[C@H]2O[C@H](CO)[C@@H](O)[C@H](O)[C@H]2O)[C@@H](O)[C@@H]1O", "note": "[Sucrose]", "values": [
      {"measurement": "Km", "setting": "[4]", "value": 16700, "unit": "µM"}
    ]},
    {"smiles": "O=c1ccn([C@@H]2O[C@H](COP(=O)(O)OP(=O)(O)OP(=O)(O)O)[C@@H](O)[C@H]2O)c(=O)[nH]1", "note": "[UTP]", "values": [
      {"measurement": "Km", "setting": "[2]; read-out: KM^UTP, SEM n.a.", "value": 76, "unit": "µM"},
      {"measurement": "Km", "setting": "[3]; read-out: KM^UTP, SEM n.a.", "value": 170, "unit": "µM"}
    ]}
  ]
}
